In the NIST ThermoML archive (doi:10.1016/j.jct.2019.06.023):
Numbers after ± are expanded uncertainties.

Assay: mn = molality of the nth substance listed, in mol/kg
Conditions: 100 kPa, Liquid; for speed of sound: Frequency=3 MHz, Single path-length method; for mass density: Vibrating tube method

O=C([O-])C(=O)[O-].[K+].[K+] [potassium oxalate] + O
speed of sound (288.15 K, m1 = 0.2): 1497 ± 1.4 m/s | speed of sound (288.15 K, m1 = 0.4): 1525.3 ± 2.1 m/s | speed of sound (288.15 K, m1 = 0.6): 1552.3 ± 1.3 m/s | speed of sound (288.15 K, m1 = 0.8): 1580.5 ± 2.6 m/s | mass density (288.15 K, m1 = 0.2): 1023.62 ± 0.58 kg/m3 | mass density (288.15 K, m1 = 0.4): 1046.97 ± 0.96 kg/m3 | mass density (288.15 K, m1 = 0.6): 1069.58 ± 1.4 kg/m3 | mass density (288.15 K, m1 = 0.8): 1092.28 ± 1.9 kg/m3 | speed of sound (298.15 K, m1 = 0.2): 1524.8 ± 1.4 m/s | speed of sound (298.15 K, m1 = 0.4): 1550.9 ± 1.6 m/s | speed of sound (298.15 K, m1 = 0.6): 1576.4 ± 2 m/s | speed of sound (298.15 K, m1 = 0.8): 1602.3 ± 2.3 m/s | mass density (298.15 K, m1 = 0.2): 1021.1 ± 0.57 kg/m3 | mass density (298.15 K, m1 = 0.4): 1044.13 ± 0.97 kg/m3 | mass density (298.15 K, m1 = 0.6): 1066.44 ± 1.4 kg/m3 | mass density (298.15 K, m1 = 0.8): 1088.95 ± 1.8 kg/m3 | speed of sound (308.15 K, m1 = 0.2): 1545.9 ± 1.4 m/s | speed of sound (308.15 K, m1 = 0.4): 1570.5 ± 1.6 m/s | speed of sound (308.15 K, m1 = 0.6): 1594.5 ± 1.9 m/s | speed of sound (308.15 K, m1 = 0.8): 1618.8 ± 2.2 m/s | mass density (308.15 K, m1 = 0.2): 1017.79 ± 0.57 kg/m3 | mass density (308.15 K, m1 = 0.4): 1040.55 ± 0.96 kg/m3 | mass density (308.15 K, m1 = 0.6): 1062.69 ± 1.4 kg/m3 | mass density (308.15 K, m1 = 0.8): 1084.89 ± 1.8 kg/m3 | speed of sound (318.15 K, m1 = 0.2): 1561.2 ± 1.3 m/s | speed of sound (318.15 K, m1 = 0.4): 1584.6 ± 2.4 m/s | speed of sound (318.15 K, m1 = 0.6): 1607.1 ± 1.6 m/s | speed of sound (318.15 K, m1 = 0.8): 1630.1 ± 2.2 m/s | mass density (318.15 K, m1 = 0.2): 1013.81 ± 0.56 kg/m3 | mass density (318.15 K, m1 = 0.4): 1036.39 ± 0.65 kg/m3 | mass density (318.15 K, m1 = 0.6): 1058.36 ± 1.6 kg/m3 | mass density (318.15 K, m1 = 0.8): 1080.46 ± 1.8 kg/m3
